Test system: Blumeria graminis
Experiment: Test on preventive effect against wheat powdery mildew (seed treatment)
Format: in vivo, Blumeria graminis on wheat (cultivar: Norin-61-go)
Conditions: seed coating, first leaf, 7 days after inoculation; for Lesion area ratio (%): non-treated plot 90
Source text: 50 g of wheat seeds (cultivar: Norin-61-go), and predetermined amounts of an aqueous suspension containing pyriofenone 30% (WN) (tradename: PROPERTY FLOWABLE), an aqueous suspension containing fluazinam 50% (WN) (tradename: FROWNCIDE SC) and an aqueous suspension containing thiophanate-methyl 75% (WM) (tradename: TOPSIN M sol) so that the respective active ingredient amounts were as identified in Table 1 (g.a.i./100 kg seed), were put in a plastic bag, sufficiently stirred and air-dried to obtain seeds coated with a fungicidal composition. Ten seeds coated with a fungicidal composition were sown in a plastic pot (diameter: 7.5 cm, height: 6.8 cm, cylindrical black plastic pot, soil: culture soil). Wheat plants were cultivated in a greenhouse and at the 1-leaf stage, conidia of Blumeria graminis were dusted and inoculated, and the wheat plants were maintained in a constant temperature chamber at 20° C. The same operation was conducted with respect to seeds coated with the respective active ingredients individually, for comparison, as shown in Table 1. 7 days after the inoculation, the lesion area ratio on the first leaf was examined, and the control value was calculated based on the following formula. Further, theoretical values (control values) by use in combination were also calculated in accordance with the following Colby's formula. Control value=(1−a/b)×100 • a: lesion area ratio in treated plot • b: lesion area ratio in non-treated plot Colby's formula=(X+Y+Z)−(XY+YZ+ZX)/100+XYZ/10,000 • X: control value of component (a) used singly • Y: control value of component (b) used singly • Z: control value of component (c) used singly

[1] = fluazinam 3.3 g.a.i./100 kg seed
[2] = fluazinam 10 g.a.i./100 kg seed
[3] = thiophanate-methyl 23.3 g.a.i./100 kg seed
[4] = thiophanate-methyl 35 g.a.i./100 kg seed
[5] = thiophanate-methyl 70 g.a.i./100 kg seed
[6] = pyriofenone 30 g.a.i./100 kg seed

For `O=[N+]([O-])c1cc(C(F)(F)F)c(Cl)c([N+](=O)[O-])c1Nc1ncc(C(F)(F)F)cc1Cl` [Fluazinam, N-(3-chloro-5-trifluoromethyl-2-pyridyl)-2,6-dinitro-3-chloro-4-trifluoromethylaniline], which Control value [1] is on record?
The Control value was 0.

And the “Lesion area ratio (%)” value [1]?
The value was 90%.

And the Control value (fluazinam 5 g.a.i./100 kg seed)?
The Control value was 0.

And the “Lesion area ratio (%)” value (fluazinam 5 g.a.i./100 kg seed)?
Its value is 90%.

And the Control value [2]?
The Control value was 0.

What about the “Lesion area ratio (%)” value [2] of the same compound?
Its value is 90%.

Which results are given for `COC(=O)NC(=S)Nc1ccccc1NC(=S)NC(=O)OC` [Thiophanate-methyl, 1,2-di-(3-methoxycarbonyl-2-thioureido)benzene]?
Control value [3]: 0; Lesion area ratio (%) [3]: 90%; Control value [4]: 33; Lesion area ratio (%) [4]: 60%; Control value [5]: 44; Lesion area ratio (%) [5]: 50%

For `COc1cc(C)c(C(=O)c2c(OC)ncc(Cl)c2C)c(OC)c1OC` [Pyriofenone, 3-(2,3,4-trimethoxy-6-methylbenzoyl)-5-chloro-2-methoxy-4-methylpyridine], which Control value [6] is on record?
Its Control value is 44.

And the “Lesion area ratio (%)” value [6]?
The value was 50%.

Source: patent US10172357B2, “Fungicidal composition and method for controlling plant diseases” (ISHIHARA SANGYO KAISHA, LTD., priority 2015, dated 2019)
